Measured values published in patent publication US20080260817A1, “Compositions for the Treatment of Inflammation and Pain Using a Combination of a Cox-2 Selective Inhibitor and a Ltb4 Receptor Antagonist” (priority 2004, published 2008).

Key:
Assay type in all cases: in vivo
[1] = test system: collagen-induced arthritis in male DBA/1 mice; assay: Collagen-induced arthritis in mice (incidence, severity, weight); conditions: for Weight: in g (unit assumed); for % Incidence: individual inhibitors in the comparison experiment
Protocol: Arthritis is induced in 8-12 week old male DBA/1 mice by injection of 50 micrograms of chick type II collagen (CII) in complete Freunds adjuvant (Sigma) on day 0 at the base of the tail as described in J. Stuart, Annual Rev. Immunol., 2, 199 (1984). Compounds are prepared as a suspension in 0.5% methylcelluose (Sigma, St. Louis, Mo.), 0.025% Tween 20 (Sigma). The COX-2 inhibitors (Example 1 and 2) and LTB4 receptor antagonist (Example 3) are administered alone or a COX-2 inhibitor and an LTB4 receptor antagonist in combination. The compounds are administered in non-arthritic animals by gavage in a volume of 0.1 mL beginning on day 20 post collagen injection and continuing daily until final evaluation on day 55. Animals are boosted on day 21 with 50 micrograms of collagen (CII) in incomplete Freunds adjuvant. The animals are subsequently evaluated several times each week for incidence and severity of arthritis until day 56. Any animal with paw redness or swelling is counted as arthritic. Scoring of severity is carried out using a score of 0-3 for each paw (maximal score of 12/mouse) as described in P. Wooley, et al., Trans. Proc., 15, 180 (1983). The animals are measured for incidence of arthritis and severity in the animals where arthritis is observed. The incidence of arthritis is determined at a gross level by observing the swelling or redness in the paw or digits. Severity is measured with the following guidelines. Briefly, animals displaying four normal paws, i.e., no redness or swelling are scored 0. Any redness or swelling of digits or the paw is scored as 1. Gross swelling of the whole paw or deformity is scored as 2. Ankylosis of joints is scored as 3.
Eight- to twelve-week old male DBA/1 mice were injected at the base of the tail with 50 micrograms of chick type II collagen in CFA. 21 days later, animals were boosted with 50 micrograms chick type II collagen in IFA. […] On day 56 animals were evaluated for arthritis. Any animals displaying inflammation in the paw were included as positive for incidence. In addition, paw swelling was graded on a standard scale of 0-3/paw (total score of 12/animal).

[2] = test system: zymosan-stimulated air pouch, cells infiltrated per pouch; assay: Murine air pouch model, 2 hour zymosan; conditions: Table 7 (FIG. 1); female Balb/c mice; PO BID from day 5; pouch lavage 2 hours after 1% zymosan on day 7; 30 mpk COX-2 Inhibitor, 300mpk LTB4 RA, alone or combined
Protocol: In the present invention, the anti-inflammatory effects of COX-2 inhibitors and LTB4 inhibitors, both alone and together, can be evaluated using the mouse air pouch model (see Example 1 and FIG. 1). Following the addition of a COX-2 inhibitor, or an LTB4 inhibitor, or both, to a zymosan-stimulated air pouch, results may be reported as the number of cells that have infiltrated per pouch as an indicator of inflammation.
Female Balb/c mice age 8-12 weeks are injected with approximately 5 milliliters of air subcutaneous using a 10 milliliter syringe with a 27-gauge needle and a 0.2 micron acrodisc filter. The animals are anesthetized with CO2/O2 mix, and then the air injection is made subcutaneously in the intrascapular region of the mouse. Animals' pouches are reinflated every 2-3 days with approximately 2-3 milliliters of air, same as above. Dosing of each compound, including Vehicle (0.5% Methylcellulose+0.025% Tween 80) or a COX-2 inhibitor (compound C-1, 15 mpk, BID), or an LTB4 receptor antagonist (compound L-2, 150 mpk, BID), or the COX-2 inhibitor combined with the LTB4 receptor antagonist (compound C-1, 30 mpk+compound L-2 150 mpk BID), starting on day 5 at 6 am. Compounds are given orally (PO) and dosed BID in a volume of 0.2 milliliters per/dose. […] Total cells/mouse is calculated using a coulter counter. […]

[3] = test system: collagen-induced arthritis in male DBA/1 mice; assay: Collagen-induced arthritis in mice (incidence, severity, weight); conditions: Table 4 (FIG. 2); evaluated day 56; treated from day 21; compound C-1 15 mpk bid, compound L-2 150 mpk bid, alone or combined
[4] = Table 4 (FIG. 2), C-1 15 mpk bid, L-2 150 mpk bid, alone or combined
[5] = Table 4 (FIG. 2), day 56, paw swelling graded 0-3/paw, total score of 12/animal, C-1 15 mpk bid, L-2 150 mpk bid, alone or combined
[6] = Table 6 (FIG. 4), doses not given
[7] = Table 6 (FIG. 4), score 0-3/paw, total 12/animal, doses not given

| SMILES | Weight [1, 4] | Severity [1, 5] | Weight [1, 6] | % Incidence [1, 6] [%] | Severity [1, 7] | Total Cells/Mouse [2] | % Incidence [3] [%] |
| --- | --- | --- | --- | --- | --- | --- | --- |
| O=C(O)C1(c2ccc3c(c2)OCC(Cc2ccc(-c4ccccc4)cc2)[C@H]3O)CCCC1 (stereo partly drawn) [LTB4 ra, 1-[3-([1,1′-biphenyl]-4-ylmethyl)-3,4-dihydro-4-hydroxy-2H-1-benzopyran-7-yl]-cyclopentanecarboxylic acid, (3S-trans)] | 26.77 | 2.7 | 26.77 | 90 | 2.7 | 38900000 | 90 |
| Cc1ccc(-c2cc(C(F)(F)F)nn2-c2ccc(S(N)(=O)=O)cc2)cc1 [COX-2 Inhib., celecoxib] | 24.66 | 5.1 | 24.66 | 100 | 5.1 | 40600000 | 100 |
